pIC50: −log10 of the molar value. Values belong to the molecule of their own block, whether it stands above or below them.
Key:
ATP6V1A = ATP6V1A (Homo sapiens, UniProt P38606)
[1] = tested on: MB231 breast cancer cells; details: cited from earlier work
mammalian cells = details: cited from earlier work

Sequence of ATP6V1A (P38606 whole entry): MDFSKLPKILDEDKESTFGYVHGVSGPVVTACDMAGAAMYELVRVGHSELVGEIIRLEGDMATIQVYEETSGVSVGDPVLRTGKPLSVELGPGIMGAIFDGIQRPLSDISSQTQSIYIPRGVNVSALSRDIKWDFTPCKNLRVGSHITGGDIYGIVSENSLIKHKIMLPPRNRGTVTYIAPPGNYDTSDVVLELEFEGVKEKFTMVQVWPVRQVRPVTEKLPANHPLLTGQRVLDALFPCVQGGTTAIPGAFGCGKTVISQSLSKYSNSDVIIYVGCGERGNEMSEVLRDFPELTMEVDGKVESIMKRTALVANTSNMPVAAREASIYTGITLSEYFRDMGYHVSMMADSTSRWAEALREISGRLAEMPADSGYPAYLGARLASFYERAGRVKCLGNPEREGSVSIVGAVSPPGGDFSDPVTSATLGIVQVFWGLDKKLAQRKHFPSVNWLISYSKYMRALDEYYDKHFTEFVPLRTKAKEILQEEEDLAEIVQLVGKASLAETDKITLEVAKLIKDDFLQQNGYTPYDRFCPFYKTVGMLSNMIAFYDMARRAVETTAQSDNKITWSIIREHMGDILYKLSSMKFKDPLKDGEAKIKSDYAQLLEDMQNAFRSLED

pIC50 (ATP6V1A): ~7.52
inhibition of probe QZ1 labeling (screen of electrophilic quinazolines) (ATP6V1A; 1 μM, cells pretreated with drug 30 min, then probe for 30 min): showed potent inhibition
Molecule: O=C(CCl)Nc1ccc2c(Nc3ccccc3)ncnc2c1 [Formula I]

Molecule: CO/C1=C\C(C)=C\[C@@H](C)[C@@H](O)[C@@H](C)C/C(C)=C/C=C/[C@H](OC)[C@@H]([C@@H](C)[C@@H](O)[C@H](C)[C@@]2(O)C[C@@H](O)[C@H](C)[C@@H](C(C)C)O2)OC1=O [bafilomycin]
effect on invasiveness of cancer cells [1]: significantly inhibited

Molecule: archazolid
concentration that blocks growth of mammalian cells (mammalian cells): subnanomolar
